# From ChEMBL document CHEMBL1201862, “PubChem BioAssay data set” (2004)
# Active and inactive are the calls of the source.
# Key:
# [1] = target: T1, Tyrosine-protein phosphatase non-receptor type 7 (Homo sapiens, UniProt P35236); assay type: functional
# T1 sequence (P35236 whole entry): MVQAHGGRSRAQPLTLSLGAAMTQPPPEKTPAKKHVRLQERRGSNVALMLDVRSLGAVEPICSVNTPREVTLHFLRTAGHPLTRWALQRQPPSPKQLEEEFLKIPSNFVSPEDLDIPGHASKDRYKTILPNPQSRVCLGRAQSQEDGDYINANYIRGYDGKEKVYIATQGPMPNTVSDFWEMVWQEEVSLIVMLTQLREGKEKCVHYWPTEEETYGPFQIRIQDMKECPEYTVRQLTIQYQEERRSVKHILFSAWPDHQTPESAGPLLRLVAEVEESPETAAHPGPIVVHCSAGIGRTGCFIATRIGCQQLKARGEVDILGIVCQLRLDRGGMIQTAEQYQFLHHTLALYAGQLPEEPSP
# [2] = target: T2, Tyrosine-protein phosphatase non-receptor type 22 (Homo sapiens, UniProt Q9Y2R2); assay type: functional
# T2 sequence (Q9Y2R2 whole entry): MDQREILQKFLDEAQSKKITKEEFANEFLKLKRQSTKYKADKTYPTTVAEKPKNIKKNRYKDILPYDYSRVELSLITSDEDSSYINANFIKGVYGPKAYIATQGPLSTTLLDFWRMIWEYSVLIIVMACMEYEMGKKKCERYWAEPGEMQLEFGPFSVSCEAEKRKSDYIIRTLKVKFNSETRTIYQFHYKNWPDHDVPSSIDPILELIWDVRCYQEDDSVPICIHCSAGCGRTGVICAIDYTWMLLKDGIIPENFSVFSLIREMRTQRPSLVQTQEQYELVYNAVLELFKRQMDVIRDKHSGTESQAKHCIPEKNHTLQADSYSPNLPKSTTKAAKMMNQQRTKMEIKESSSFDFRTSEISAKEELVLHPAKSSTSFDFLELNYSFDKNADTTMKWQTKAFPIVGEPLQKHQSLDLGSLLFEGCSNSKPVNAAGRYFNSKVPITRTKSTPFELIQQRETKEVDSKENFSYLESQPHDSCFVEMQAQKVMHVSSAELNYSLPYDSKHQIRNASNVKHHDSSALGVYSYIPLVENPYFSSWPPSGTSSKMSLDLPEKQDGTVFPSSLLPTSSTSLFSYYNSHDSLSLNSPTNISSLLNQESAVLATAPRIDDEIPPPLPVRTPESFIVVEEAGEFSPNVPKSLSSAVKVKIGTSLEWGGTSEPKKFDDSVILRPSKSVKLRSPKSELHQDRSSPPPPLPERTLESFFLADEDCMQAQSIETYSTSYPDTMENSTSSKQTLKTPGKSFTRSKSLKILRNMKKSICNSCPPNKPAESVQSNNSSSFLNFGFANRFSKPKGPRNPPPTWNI
# [3] = target: T2, Tyrosine-protein phosphatase non-receptor type 22; assay type: functional; remark: listed apart in the source
# [4] = target: T3, Alkaline phosphatase, tissue-nonspecific isozyme (Homo sapiens, UniProt P05186); assay: human TNAP enzyme inhibitors, SAR follow-up, biochemical, luminescent, dose response (AID 1056)
# T3 sequence (P05186 whole entry): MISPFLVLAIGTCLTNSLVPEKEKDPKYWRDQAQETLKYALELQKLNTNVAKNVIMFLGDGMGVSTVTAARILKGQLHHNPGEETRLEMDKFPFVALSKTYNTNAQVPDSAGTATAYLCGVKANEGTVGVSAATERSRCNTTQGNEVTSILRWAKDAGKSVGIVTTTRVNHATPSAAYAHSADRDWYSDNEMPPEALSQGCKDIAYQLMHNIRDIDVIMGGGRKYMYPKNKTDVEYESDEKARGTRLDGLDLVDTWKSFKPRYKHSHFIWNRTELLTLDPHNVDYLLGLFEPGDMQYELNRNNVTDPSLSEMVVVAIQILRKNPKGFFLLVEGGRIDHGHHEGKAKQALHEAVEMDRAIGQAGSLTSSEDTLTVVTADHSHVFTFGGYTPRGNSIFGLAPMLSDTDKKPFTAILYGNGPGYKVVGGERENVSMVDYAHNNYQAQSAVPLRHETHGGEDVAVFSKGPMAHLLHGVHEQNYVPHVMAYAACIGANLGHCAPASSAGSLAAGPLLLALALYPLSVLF
# Large T antigen = Large T antigen (Simian virus 40, UniProt P03070); assay type: functional, Betapolyomavirus macacae;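 further: Confirmatory-stage PubChem screen for compounds that inhibit SV40 T antigen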
# [5] = target: Alkaline phosphatase, placental type (Homo sapiens, UniProt P05187); assay: PLAP enzyme inhibitors, confirmation, biochemical, luminescence (AID 1512); assay type: functional
# CHO-K1 = assay: Counterscreen for antagonists of the orexin 1 receptor (OX1R; HCRTR1): Homogeneous time resolved fluorescence (HTRF)-based cell-based dose response assay to identify antagonists of the parental CHO-K1 cell line. [Related pubchem assays (depositor defined):AID434989, AID435008, AID463079, AID485270, AID492963, AID492964, AID492965, AID493232, AID504699, AID504701]; assay type: functional; details: Cricetulus griseus;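 further: potency for inhibition of ATP-stimulated IP1 production as antagonists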
# [6] = Counterscreen for antagonists of the orexin 1 receptor (OX1R; HCRTR1): Fluorescence-based cell-based high throughput dose response assay to identify antagonists of the parental CHO cell line. [Related pubchem assays (depositor defined):AID434989, AID435008, AID463079, AID485270, AID492963, AID492964, AID492965, AID493232, AID504699, AID504701]; assay type: functional
# [7] = target: T4, Orexin/Hypocretin receptor type 1 (Homo sapiens, UniProt O43613); assay: Homogeneous Time Resolved Fluorescence (HTRF)-based cell-based high throughput dose response assay for antagonists of the orexin 1 receptor (OX1R; HCRTR1). [Related pubchem assays (depositor defined):AID434989, AID435008, AID463079, AID485270, AID492963, AID492964, AID492965, AID493232, AID504717, AID504718]; assay type: functional
# T4 sequence (O43613 whole entry): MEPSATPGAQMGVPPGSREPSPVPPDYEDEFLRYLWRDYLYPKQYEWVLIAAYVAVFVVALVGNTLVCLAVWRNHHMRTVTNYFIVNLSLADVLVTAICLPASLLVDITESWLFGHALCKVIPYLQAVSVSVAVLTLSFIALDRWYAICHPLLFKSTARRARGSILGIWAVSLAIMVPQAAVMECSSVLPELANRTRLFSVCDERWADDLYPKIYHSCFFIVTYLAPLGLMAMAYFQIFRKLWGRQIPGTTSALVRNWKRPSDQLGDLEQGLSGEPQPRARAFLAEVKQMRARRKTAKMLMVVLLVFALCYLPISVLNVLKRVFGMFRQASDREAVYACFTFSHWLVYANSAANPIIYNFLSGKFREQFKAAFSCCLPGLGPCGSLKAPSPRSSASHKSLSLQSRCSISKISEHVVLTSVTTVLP
# [8] = target: T4, Orexin/Hypocretin receptor type 1; assay: Fluorescence-based cell-based high throughput dose response assay for antagonists of the orexin 1 receptor (OX1R; HCRTR1). [Related pubchem assays (depositor defined):AID434989, AID435008, AID463079, AID485270, AID492963, AID492964, AID492965, AID493232, AID504717, AID504718]; assay type: functional
# [9] = C. albicans growth with fluconazole, confirmation, fluorescence, retest (AID 2467); assay type: functional, cell-based
# cells [10] = assay type: functional, cell-based
# [11] = target: ATP-dependent molecular chaperone HSP82 (Candida albicans (strain WO-1) (Yeast), UniProt C4YTQ8); assay: loss of DOC-induced GRE-beta-galactosidase reporter signal, dose response, Hsp90 inhibitor project, S. cerevisiae, luminescence (AID 2400); assay type: functional, cell-based;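 further: beta-galactosidase luminescence from glucocorticoid response element reporter as proxy for Hsp90 function; inhibitor potency where signal loss means Hsp90 inhibition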
# [12] = target: G-protein coupled receptor 55 (Homo sapiens, UniProt Q9Y2T6); assay: GPR55 agonists via beta-arrestin recruitment, primary screen, imaging, U2OS cells, beta-arrestin-GFP redistribution (AID 1961); assay type: functional
# cells [13] = assay type: functional, cell-based; remark: listed apart in the source
# [14] = target: T5, Serine/threonine-protein phosphatase (Candida dubliniensis (strain CD36 / CBS 7987 / NCPF 3949 / NRRLY-17841) (Yeast), UniProt B9W6M3); assay: calcineurin pathway inhibitors in yeast reporter, dose response, S. cerevisiae, CDRE-lacZ, luminescence, secondary (AID 2388); assay type: functional, cell-based;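 further: yeast reporter cells carrying a calcineurin-responsive lacZ construct stimulated with calcium chloride; luminescent beta-galactosidase reporter signal in whole cells rather than isolated phosphatase activity; potency for inhibition where a drop in reporter signal means calcineurin blockade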
# T5 sequence (B9W6M3 whole entry): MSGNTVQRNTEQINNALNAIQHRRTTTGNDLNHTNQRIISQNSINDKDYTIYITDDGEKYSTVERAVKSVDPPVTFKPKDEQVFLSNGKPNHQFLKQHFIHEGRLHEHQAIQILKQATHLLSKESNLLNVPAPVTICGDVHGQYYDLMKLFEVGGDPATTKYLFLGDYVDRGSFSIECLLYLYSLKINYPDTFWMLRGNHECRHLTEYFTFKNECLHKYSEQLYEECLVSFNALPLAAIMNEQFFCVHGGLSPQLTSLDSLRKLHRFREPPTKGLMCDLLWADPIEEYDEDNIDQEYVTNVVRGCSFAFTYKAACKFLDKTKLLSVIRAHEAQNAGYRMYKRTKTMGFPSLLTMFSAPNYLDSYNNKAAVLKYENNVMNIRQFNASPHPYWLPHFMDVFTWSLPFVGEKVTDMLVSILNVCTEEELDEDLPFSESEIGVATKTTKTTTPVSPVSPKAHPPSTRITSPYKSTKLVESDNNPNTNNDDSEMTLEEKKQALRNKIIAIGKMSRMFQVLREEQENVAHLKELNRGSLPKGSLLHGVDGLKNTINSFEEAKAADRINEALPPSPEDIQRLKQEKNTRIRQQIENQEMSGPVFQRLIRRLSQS
# INS1 = assay: beta cell apoptosis inhibitors, cytokine rescue, dose response, luminescence, retest (AID 449756); assay type: functional, cell-based; details: Rattus norvegicus;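 further: cell death triggered by IL-1 beta plus TNF-alpha plus IFN-gamma mixture; protective hits raise ATP signal compared with cytokine alone wells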
# [15] = cytotoxicity toward NIH3T3 fibroblasts, dose response, counter-screen, cell-based, ATP luminescence, mouse fibroblasts (AID 2010); assay type: functional;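 further: cells exposed to compound for about 90 hours before reading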
# Streptokinase A = target: T6, Streptokinase A (Streptococcus pyogenes serotype M1, UniProt P10520); assay: S. pyogenes streptokinase expression inhibitors, potency, dose response, plasminogen activation absorbance, OD405 (AID 1914); assay type: functional, Streptococcus pyogenes M1 GAS;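 further: secreted streptokinase activity via plasminogen activation per viability signal from cell pellet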
# T6 sequence (P10520 whole entry): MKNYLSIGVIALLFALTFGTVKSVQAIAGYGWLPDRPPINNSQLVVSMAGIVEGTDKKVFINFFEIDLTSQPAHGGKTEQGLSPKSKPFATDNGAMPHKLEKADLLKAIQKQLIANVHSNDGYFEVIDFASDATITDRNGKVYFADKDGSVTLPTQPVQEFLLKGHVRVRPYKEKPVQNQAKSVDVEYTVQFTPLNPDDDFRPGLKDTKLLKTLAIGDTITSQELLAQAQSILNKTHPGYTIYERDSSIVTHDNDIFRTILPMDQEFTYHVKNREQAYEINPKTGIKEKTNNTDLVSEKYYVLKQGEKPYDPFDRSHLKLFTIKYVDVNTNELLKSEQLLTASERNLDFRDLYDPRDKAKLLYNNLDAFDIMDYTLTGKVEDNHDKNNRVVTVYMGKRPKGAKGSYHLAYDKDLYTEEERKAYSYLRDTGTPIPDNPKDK
# [16] = system: Streptococcus sp. 'group A'; assay: growth inhibition of control SK(-) GAS strain, dose response, counter-screen for streptokinase expression inhibitor project, luminescence, kanamycin, BacTiterGlo, confirmation (AID 1900); assay type: functional, organism-based
# Streptococcus = assay: Group A Streptococcus viability loss, dose response, counter-screen for streptokinase expression inhibitor project, luminescence, BacTiterGlo (AID 1915); assay type: functional, organism-based;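 further: potency for reduction of bacterial viability or growth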
# [17] = NIH-3T3 fibroblast cytotoxicity, dose response, cytotoxicity control, cell-based, fluorescence, Alamar Blue, secondary assay (AID 2327); assay type: functional;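 further: NIH-3T3 mouse fibroblasts cultured with fluconazole at 8 µg/mL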
# [18] = inhibitors of intracellular T. cruzi replication, confirmation, NIH3T3 host cells, beta-gal luminescence (AID 2044); assay type: functional, cell-based;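 further: intracellular parasites grown in NIH/3T3 mouse fibroblasts as host cells; luminescent beta-galactosidase reporter signal from transgenic T. cruzi replicating inside host cells; inhibitors lower the luminescence signal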
# [19] = target: T7, E3 ubiquitin-protein ligase XIAP (Homo sapiens, UniProt P98170); assay: XIAP antagonists, biochemical, IAP family, fluorescence polarization (AID 1018); assay type: functional
# [20] = target: T7, E3 ubiquitin-protein ligase XIAP; assay: Counter Screen using XIAP-Bir3 for Chemical Antagonists of Bir1/2 domains of IAP-family anti-apoptotic proteins. [Related pubchem assays (depositor defined):AID1018, AID1449, AID1514, AID1638, AID1749, AID1750, AID488957, AID488963]
# T7 sequence (P98170 whole entry): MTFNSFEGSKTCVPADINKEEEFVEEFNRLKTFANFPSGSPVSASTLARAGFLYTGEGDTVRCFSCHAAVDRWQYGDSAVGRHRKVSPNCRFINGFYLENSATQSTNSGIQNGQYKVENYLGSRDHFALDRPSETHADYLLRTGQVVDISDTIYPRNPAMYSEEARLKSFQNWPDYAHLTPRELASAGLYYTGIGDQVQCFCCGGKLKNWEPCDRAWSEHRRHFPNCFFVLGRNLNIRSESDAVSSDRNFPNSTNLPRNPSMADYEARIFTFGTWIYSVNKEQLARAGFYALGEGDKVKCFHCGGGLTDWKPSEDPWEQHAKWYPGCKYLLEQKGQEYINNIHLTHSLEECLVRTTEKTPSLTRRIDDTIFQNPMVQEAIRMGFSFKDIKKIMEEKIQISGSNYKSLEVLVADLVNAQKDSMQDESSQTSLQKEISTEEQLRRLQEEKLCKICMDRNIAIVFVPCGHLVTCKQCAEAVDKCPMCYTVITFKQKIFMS
# Chain of Alkaline phosphatase, placental type (P05187 whole entry): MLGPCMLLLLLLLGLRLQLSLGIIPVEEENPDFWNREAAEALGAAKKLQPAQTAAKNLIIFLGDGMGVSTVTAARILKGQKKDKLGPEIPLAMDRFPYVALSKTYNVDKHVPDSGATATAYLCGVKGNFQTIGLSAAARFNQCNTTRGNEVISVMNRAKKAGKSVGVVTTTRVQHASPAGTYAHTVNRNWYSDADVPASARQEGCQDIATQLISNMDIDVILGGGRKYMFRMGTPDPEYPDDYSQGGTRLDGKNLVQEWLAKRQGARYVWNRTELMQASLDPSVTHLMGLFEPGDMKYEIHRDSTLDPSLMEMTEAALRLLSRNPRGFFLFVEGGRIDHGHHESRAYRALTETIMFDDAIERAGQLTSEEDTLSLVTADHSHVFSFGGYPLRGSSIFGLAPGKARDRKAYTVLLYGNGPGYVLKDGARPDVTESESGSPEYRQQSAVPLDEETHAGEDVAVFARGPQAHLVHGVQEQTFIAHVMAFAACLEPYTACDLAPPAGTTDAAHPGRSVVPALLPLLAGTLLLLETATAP
# Chain of Large T antigen (P03070 whole entry): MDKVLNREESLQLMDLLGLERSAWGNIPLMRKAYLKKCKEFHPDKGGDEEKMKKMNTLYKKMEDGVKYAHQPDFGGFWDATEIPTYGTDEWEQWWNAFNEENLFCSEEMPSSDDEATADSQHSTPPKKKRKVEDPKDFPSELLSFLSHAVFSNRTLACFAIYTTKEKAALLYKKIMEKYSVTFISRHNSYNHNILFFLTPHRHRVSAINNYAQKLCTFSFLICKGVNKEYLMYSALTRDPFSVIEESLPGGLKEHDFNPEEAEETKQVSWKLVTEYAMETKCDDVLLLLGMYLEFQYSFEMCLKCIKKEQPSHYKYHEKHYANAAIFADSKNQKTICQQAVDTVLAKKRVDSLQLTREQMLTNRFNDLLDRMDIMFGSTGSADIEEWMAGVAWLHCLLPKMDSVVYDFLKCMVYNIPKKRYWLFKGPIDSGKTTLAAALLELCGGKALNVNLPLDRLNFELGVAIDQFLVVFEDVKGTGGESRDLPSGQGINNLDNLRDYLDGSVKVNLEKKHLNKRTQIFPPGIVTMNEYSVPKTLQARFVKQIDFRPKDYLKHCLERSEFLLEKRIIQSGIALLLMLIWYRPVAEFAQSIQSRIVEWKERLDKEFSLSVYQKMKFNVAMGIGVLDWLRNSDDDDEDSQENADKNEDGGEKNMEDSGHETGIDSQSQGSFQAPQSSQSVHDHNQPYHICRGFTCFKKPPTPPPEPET
# Chain of ATP-dependent molecular chaperone HSP82 (C4YTQ8 whole entry): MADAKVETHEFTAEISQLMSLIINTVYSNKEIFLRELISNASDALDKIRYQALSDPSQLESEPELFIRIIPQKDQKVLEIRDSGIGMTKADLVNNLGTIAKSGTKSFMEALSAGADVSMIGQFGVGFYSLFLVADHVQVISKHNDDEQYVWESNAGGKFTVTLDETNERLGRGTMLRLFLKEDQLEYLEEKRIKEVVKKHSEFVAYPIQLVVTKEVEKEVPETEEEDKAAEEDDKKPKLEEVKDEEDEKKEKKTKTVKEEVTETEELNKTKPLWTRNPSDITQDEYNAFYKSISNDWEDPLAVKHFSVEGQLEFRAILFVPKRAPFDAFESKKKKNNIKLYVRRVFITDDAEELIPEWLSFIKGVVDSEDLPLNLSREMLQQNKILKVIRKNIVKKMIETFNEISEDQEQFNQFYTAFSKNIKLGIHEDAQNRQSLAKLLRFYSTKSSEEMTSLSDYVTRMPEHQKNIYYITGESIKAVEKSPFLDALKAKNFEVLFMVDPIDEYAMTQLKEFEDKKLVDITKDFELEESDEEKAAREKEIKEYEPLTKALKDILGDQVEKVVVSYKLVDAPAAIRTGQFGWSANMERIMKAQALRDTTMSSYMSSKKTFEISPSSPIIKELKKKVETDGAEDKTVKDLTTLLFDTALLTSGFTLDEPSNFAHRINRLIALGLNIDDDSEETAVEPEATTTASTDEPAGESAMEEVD
# Chain of G-protein coupled receptor 55 (Q9Y2T6 whole entry): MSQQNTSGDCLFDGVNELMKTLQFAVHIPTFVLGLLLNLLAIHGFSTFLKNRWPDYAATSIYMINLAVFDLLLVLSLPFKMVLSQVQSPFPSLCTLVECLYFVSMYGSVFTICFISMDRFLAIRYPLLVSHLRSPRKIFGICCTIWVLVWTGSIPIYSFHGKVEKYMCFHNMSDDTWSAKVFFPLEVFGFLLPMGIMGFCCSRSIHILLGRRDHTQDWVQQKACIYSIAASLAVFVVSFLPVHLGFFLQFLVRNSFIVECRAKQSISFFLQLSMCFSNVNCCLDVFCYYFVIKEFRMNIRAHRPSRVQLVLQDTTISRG
smiles,measurement,setting,value
Cc1cc(Cl)ccc1OCC(=O)OCC(=O)Nc1ccc(F)c([N+](=O)[O-])c1,IC50,[1],> 79.4 µM (inactive)
same,IC50,[2],> 79.4 µM (inactive)
same,IC50,[3],> 79.4 µM (inactive)
Cn1c(SCC(=O)c2ccc(O)c(O)c2)nnc1-c1cccs1,IC50,[4],> 100 µM (inactive)
same,IC50,Large T antigen,> 100 µM (active)
same,IC50,[5],4.9 µM (active)
C=CCn1c(SCC(=O)c2ccc(O)c(O)c2)nnc1-c1ccc(C(C)(C)C)cc1,IC50,[4],> 100 µM (inactive)
same,IC50,[5],97.5 µM (active)
COC(=O)C(C(C)=O)C1=C/C(=N\S(=O)(=O)c2ccc(C)cc2)c2ccccc2C1=O (configuration not stated),IC50,CHO-K1,53.7 µM (inactive)
same,IC50,[6],> 49.8 µM (inactive)
same,IC50,[7],0.414 µM (active)
same,IC50,[8],2.83 µM (active)
CC1CCN(Cc2c(C(=O)N/N=C/c3cc(Cl)ccc3O)nnn2-c2nonc2N)CC1,EC50,[9],0.508 µM (active)
same,EC50,cells [10],> 350 µM (not active)
same,EC50,[11],> 150 µM (inactive)
same,EC50,[12],4.16 µM (active)
same,EC50,cells [13],10.7 µM (active)
same,EC50,[14],> 180 µM (inactive)
same,AC50,INS1,0.457 µM (active)
same,EC50,[15],5.57 µM (active)
same,EC50,Streptokinase A,31 µM (active)
same,EC50,[16],27.3 µM (active)
same,EC50,Streptococcus,> 150 µM (not active)
same,EC50,[17],> 150 µM (inconclusive)
same,EC50,[18],0.541 µM (active)
Cc1ccc(C(=O)N/N=C\c2ccccc2[N+](=O)[O-])cn1,IC50,[19],> 100 µM (not active)
same,IC50,[20],> 100 µM (inactive)
